Where “and” joins values, the source holds several entries; their conditions need not be identical. Identical values can stand only once.
Columns and labels:
[1] = test system: tomato; assay: Experimental Example 2: Efficacy test on tomato using oil based formulation (reddening grade); format: in vivo; conditions: 1.0 mM oil-based formulation, individual tomatoes n=4
Excerpt: (§1) At this time, the tops of tomatoes most early turned red, while the bottoms thereof most lately turned red. For this reason, in order to accurately evaluate the difference in reddening, the coloring evaluated was based on the area of red color, rather than the color of tomatoes. […] Accordingly, the grade level is proportional to the rate at which the tomatoes ripened.
As illustrated in Example 1, in situ, in accordance with the methods of Preparation Examples 15, 16, 17, 18 and 22, five agents (1.0 mmol) such as 1-(2-phenylethyl)cyclopropene, 1-(3-phenylpropyl)cyclopropene, 1-(4-phenylbutyl)cyclopropene, 1-(5-phenylpentyl)cyclopropene and 1-hexylcyclopropene were prepared, 5.0 ml of xylene and 5.0 ml of water were added to the reaction solution, vigorously stirred for 5 minutes and stood. When the mixture was separated into an organic layer (upper layer) and an aqueous layer (lower layer), only the organic layer was collected and the aqueous layer was discarded. […] of hexane was added to the organic layer and homogeneously mixed to prepare a 1.0 mM oil-based formulation.
The tomatoes were screened in the same manner as in Experimental Example 1 and divided into 7 groups (n=4) including a non-treated group, a control group (solvent-treated group) and 5 agent groups. Tomatoes were treated with the previously prepared agent using a household sprayer such that the surface thereof was saturated. The tomatoes were stood at room temperature (25-30° C.) for 3 days and a reddening level thereof was evaluated based on grades of 0 to 5.

[2] = Relative chemical stability of cyclopropenes measured by 1H-NMR; format: physicochemical
How it was run: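 Compounds in CDCl3 NMR tubes stored at −20° C. or room temperature and followed by 1H-NMR. Integrals of characteristic 1-alkylcyclopropene peaks (4–6.5 ppm, 1H; 0.8–0.9 ppm, 2H) compared against 1,1,3,3-tetramethylurea internal standard (2.80 ppm); stability expressed relative to chain-length-1 analogue.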

[3] = test system: tomato; assay: Experimental Example 1: Efficacy test on tomato using emulsion (reddening grade); format: in vivo; conditions: individual tomatoes n=4
Description: In situ, a 1.0 mM 1-octylcyclopropene formulation was prepared using (trans)-1-octyl-1-(methanesulfonyloxy)-2-(trimethylsilyl)cyclopropane of Preparation Example 10 in the same manner as in Example 7. This solution was diluted to 1 to 100 times prior to use, as necessary. Experimental Example 1: Efficacy test on tomato using emulsion 1.0 mM formulations of five agents such as 1-(2-phenylethyl)cyclopropene, 1-(3-phenylpropyl)cyclopropene, 1-(4-phenylbutyl)cyclopropene, 1-(5-phenylpentyl)cyclopropene and 1-hexylcyclopropene were prepared in the same manner as in Example 1, and 1.0 mM and 100 μM solutions were prepared therefrom. Then, the effects of the solutions were compared with non-treated groups and control groups in which a surfactant or a stabilizing agent (sodium dodecylbenzenesulfonate or tristyrenylphenykethoxy)12ethanol) is dissolved.
Tomatoes whose top end began to turn pink were screened, harvested and divided into 12 groups (n=4) in total, i.e., non-treated groups, control groups (surfactant) and agent groups with different concentrations such as 100 μM and 1.0 mM. Tomatoes were treated with the prepared agent formulation using a household sprayer such that the surface thereof was saturated. The tomatoes were stood at room temperature (25-30° C.) for 3 days and a reddening level thereof was evaluated based on grades of 0 to 5.
as §1

chemical stability (in words) [2]: much more stable
Stability (relative chemical stability, based on cyclopropenes having a chain length of 1) ([2]; 1H-NMR, CDCl3, stored at −20° C. or room temperature, relative to chain length 1): >>10
SMILES: C1=C(CCCCc2ccccc2)C1 [(4-Phenylbutyl), 1-(4-phenylbutyl)cyclopropene]
Tomato results: reddening level (grade 0 to 5) ([1]; Day 0, room temperature (25-30° C.)): 0 (an area in which the surface of tomato was colored in pink was 10% or less) (2×) and 1 (an area in which the surface of tomato was completely colored in red was 10 to 40%) and 2 (an area in which the surface of tomato was completely colored in red was 40 to 70%)
Tomato results: reddening level (grade 0 to 5) ([1]; Day 1, room temperature (25-30° C.)): 0 (an area in which the surface of tomato was colored in pink was 10% or less) (2×) and 1 (an area in which the surface of tomato was completely colored in red was 10 to 40%) and 2 (an area in which the surface of tomato was completely colored in red was 40 to 70%)
Tomato results: reddening level (grade 0 to 5) ([1]; Day 2, room temperature (25-30° C.)): 0 (an area in which the surface of tomato was colored in pink was 10% or less) (2×) and 1 (an area in which the surface of tomato was completely colored in red was 10 to 40%) and 3 (an area in which the surface of tomato was completely colored in red was 70% or more and the bottom area remained green)
Tomato results: reddening level (grade 0 to 5) ([1]; Day 3, room temperature (25-30° C.)): 1 (an area in which the surface of tomato was completely colored in red was 10 to 40%) and 0 (an area in which the surface of tomato was colored in pink was 10% or less) and 2 (an area in which the surface of tomato was completely colored in red was 40 to 70%) and 4
reddening level (grade 0 to 5) ([3]; 100 μM, Day 0, room temperature (25-30° C.)): 0 (an area in which the surface of tomato was colored in pink was 10% or less) (2×) and 1 (an area in which the surface of tomato was completely colored in red was 10 to 40%) and 2 (an area in which the surface of tomato was completely colored in red was 40 to 70%)
reddening level (grade 0 to 5) ([3]; 100 μM, Day 1, room temperature (25-30° C.)): 0 (an area in which the surface of tomato was colored in pink was 10% or less) (2×) and 1 (an area in which the surface of tomato was completely colored in red was 10 to 40%) and 2 (an area in which the surface of tomato was completely colored in red was 40 to 70%)
reddening level (grade 0 to 5) ([3]; 100 μM, Day 2, room temperature (25-30° C.)): 1 (an area in which the surface of tomato was completely colored in red was 10 to 40%) (2×) and 2 (an area in which the surface of tomato was completely colored in red was 40 to 70%) and 3 (an area in which the surface of tomato was completely colored in red was 70% or more and the bottom area remained green)
reddening level (grade 0 to 5) ([3]; 100 μM, Day 3, room temperature (25-30° C.)): 2 (an area in which the surface of tomato was completely colored in red was 40 to 70%) (2×) and 3 (an area in which the surface of tomato was completely colored in red was 70% or more and the bottom area remained green) and 4
reddening level (grade 0 to 5) ([3]; 1.0 mM, Day 0, room temperature (25-30° C.)): 0 (an area in which the surface of tomato was colored in pink was 10% or less) (2×) and 1 (an area in which the surface of tomato was completely colored in red was 10 to 40%) and 2 (an area in which the surface of tomato was completely colored in red was 40 to 70%)
reddening level (grade 0 to 5) ([3]; 1.0 mM, Day 1, room temperature (25-30° C.)): 0 (an area in which the surface of tomato was colored in pink was 10% or less) (2×) and 1 (an area in which the surface of tomato was completely colored in red was 10 to 40%) and 2 (an area in which the surface of tomato was completely colored in red was 40 to 70%)
reddening level (grade 0 to 5) ([3]; 1.0 mM, Day 2, room temperature (25-30° C.)): 0 (an area in which the surface of tomato was colored in pink was 10% or less) (2×) and 1 (an area in which the surface of tomato was completely colored in red was 10 to 40%) and 3 (an area in which the surface of tomato was completely colored in red was 70% or more and the bottom area remained green)
reddening level (grade 0 to 5) ([3]; 1.0 mM, Day 3, room temperature (25-30° C.)): 1 (an area in which the surface of tomato was completely colored in red was 10 to 40%) (2×) and 2 (an area in which the surface of tomato was completely colored in red was 40 to 70%) and 3 (an area in which the surface of tomato was completely colored in red was 70% or more and the bottom area remained green)

— patent publication US9072293B2, “Cyclopropenes and method for applying cyclopropenes to agricultural products or crops” (Erum Biotechnologies Inc., priority 2010, dated 2015)
